These results are taken from paper PMC8232551 (RSC Chemical Biology, 2020).

One data set has as its system HeLa cells. Description: Live-cell confocal imaging of uptake of fluorescein-labelled peptides. As to conditions: 1000 nM. It is filed as cell-based.
In the next data set the test system is HEK-293 cells. Briefly: Apoptosis assay in HEK-293 cells. The following applies: HEK-293 non-cancer derived cells, 10 μM. Format: cell-based.

Peptide text beside a SMILES is read from it. * marks the point of attachment. Cbz = O=C(OCc1ccccc1)*

For the compound `O=C1OC2(c3ccc(O)cc3Oc3cc(O)ccc32)c2ccccc21` [fluorescein], the “uptake into live HeLa cells” value in the data set on HeLa cells is recorded as “negligible uptake”.
As to `CC(C)C[C@@H](C=O)NC(=O)[C@H](CC(C)C)NC(=O)[C@H](CC(C)C)NC(=O)OCc1ccccc1` [MG132] (Cbz-Leu-Leu-Leu-aldehyde), the induction of apoptosis result in the data set with HEK-293 cells was “did induce apoptosis”.
